Source: ChEMBL document CHEMBL1212843, “Dual-target-directed 1,3-diphenylurea derivatives: BACE 1 inhibitor and metal chelator against Alzheimer's disease” (Bioorg Med Chem, 2010)

Assays:
Beta-secretase 1 [1] = target: T1, Beta-secretase 1 (Homo sapiens, UniProt P56817); assay: Inhibition of BACE1 by FRET assay; design: concentration or dose not given beside the values; conditions: concentration not given here
Beta-secretase 1 [2] = target: T1, Beta-secretase 1; assay: Inhibition of BACE1 at 20 ug/ml by FRET assay

T1 sequence (P56817 whole entry): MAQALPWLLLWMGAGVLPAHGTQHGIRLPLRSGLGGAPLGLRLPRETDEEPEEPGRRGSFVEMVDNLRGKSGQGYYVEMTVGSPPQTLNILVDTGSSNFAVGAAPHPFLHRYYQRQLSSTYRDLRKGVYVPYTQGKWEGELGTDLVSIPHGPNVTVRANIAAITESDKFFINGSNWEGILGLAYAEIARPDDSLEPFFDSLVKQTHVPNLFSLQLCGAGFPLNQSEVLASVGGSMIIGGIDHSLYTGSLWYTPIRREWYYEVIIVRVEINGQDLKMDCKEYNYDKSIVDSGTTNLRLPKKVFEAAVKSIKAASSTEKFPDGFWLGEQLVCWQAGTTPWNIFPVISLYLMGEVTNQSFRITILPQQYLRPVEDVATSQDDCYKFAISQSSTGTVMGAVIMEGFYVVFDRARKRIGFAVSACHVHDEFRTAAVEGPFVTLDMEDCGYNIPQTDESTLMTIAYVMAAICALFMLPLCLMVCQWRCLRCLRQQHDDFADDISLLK

Compound | inhibition (Beta-secretase 1 [1]) | IC50 (Beta-secretase 1 [2])
O=C(Cc1cccc([N+](=O)[O-])c1)Nc1cc(Br)ccc1OCCN1CCOCC1 | 20.3% | –
O=C(Cc1ccccc1Cl)Nc1cc(Br)ccc1OCCNCCCCCO | 67.5% | > 42.5 µM
CCCCCCNCCOc1ccc(Br)cc1NC(=O)Cc1ccccc1Cl | 79.4% | 29.4 µM
COc1cccc(CC(=O)Nc2cc(Br)ccc2OCCN2CCOCC2)c1 | 20.9% | –
NCCCNCCOc1ccc(Br)cc1NC(=O)Cc1ccccc1Cl | 77.9% | > 45.2 µM
NCCCCCCNCCOc1ccc(Br)cc1NC(=O)Cc1ccccc1Cl | – | 27.9 µM

More lines, now with the values ahead:

inhibition (Beta-secretase 1 [1]) | IC50 (Beta-secretase 1 [2]) | Compound
61.9% | > 44.2 µM | O=C(Cc1ccccc1Cl)Nc1cc(Br)ccc1OCCN1CCCCC1
87.7% | > 42.8 µM | O=C(Cc1ccccc1Cl)Nc1cc(Br)ccc1OCCNC1CCCCC1
77.1% | 37.6 µM | O=C(Cc1ccccc1Cl)Nc1cc(Br)ccc1OCCNC1CC1
36.8% | – | O=C(Cc1ccccc1Cl)Nc1cc(Br)ccc1OCCN1CCOCC1
24.5% | – | O=C(Cc1ccccc1)Nc1cc(Br)ccc1OCCN1CCOCC1
